This passage reports pKa results from US4260745A, “3-Halo cephalosporins” (Eli Lilly and Company, priority 1979, dated 1981).

Counter-ions that a name gives are not always drawn. Like-named read-outs stand apart in the source and are kept apart here.

This series can be described thus: Electrometric titration. The format is physicochemical.
Where [1] appears, read: 66% aqueous dmf, only or first pKa, read-out: pKa.

In the case of `NC1C(=O)N2C(C(=O)OCc3ccc([N+](=O)[O-])cc3)=C(O)CS[C@H]12` (some centres unmarked) [Example 5, p-Nitrobenzyl 7-amino-3-hydroxy-3-cephem-4-carboxylate hydrochloride], the pKa is 6.3 (66% aqueous dmf, 66% DMF, second pKa, read-out: pKa) and 4 under setting [1].
Turning to `COC(=O)C1=C(O)CS[C@@H]2C(NC(=O)COc3ccccc3)C(=O)N12` (some centres unmarked) [Example 9, Methyl 7-phenoxyacetamido-3-hydroxy-3-cephem-4-carboxylate], the pKa under setting [1] came to 5.6.
On to `NC1C(=O)N2C(C(=O)OC(c3ccccc3)c3ccccc3)=C(O)CS[C@H]12` (some centres unmarked) [diphenylmethyl 7-amino-3-hydroxy-3-cephem-4-carboxylate hydrochloride], for which the pKa reads like this: (60% aqueous dmf, 60% aq. DMF, first group, read-out: titratable groups) 4.5; (60% aqueous dmf, 60% aq. DMF, second group, read-out: titratable groups) 6.5.
